Measured values from paper PMC3465347, “Regulation of NF-κB Activation through a Novel PI-3K-Independent and PKA/Akt-Dependent Pathway in Human Umbilical Vein Endothelial Cells” (PLoS ONE, 2012).

Experiments:
IKK-β = target: T1, IKK-β (Homo sapiens, UniProt O14920); experiment: Direct IKK-β kinase assay on immunoprecipitated IKK-β; assay type: biochemical; conditions: immunoprecipitated IKK-β incubated with MPTAG
T1 construct: Endogenous IKK complexes were immunoprecipitated in the following reaction mixtures; endogenous in cells; host or cells: HUVEC (uninduced and TNF-α-induced), anti-IKK-β immunoprecipitate
Protocol: (§1) In brief, confluent HUVECs were incubated with or without MPTAG and were stimulated with TNF-α (10 ng/ml) for 15 mins. The cells were washed and lysed in Lysis buffer containing 50 mM HEPES, pH 7.6, 10% glycerol, 1 mM sodium orthovanadate, 100 mM NaCl, 1% NP-40, 1 mM EDTA and protease inhibitor cocktail and allowed to swell on ice for 45 mins. Following centrifugation at 13,000 rpm for 45 mins, the supernatants were collected as “total cell extracts” and stored at −70°C. Immunoprecipitation was performed as per the instructions of Protein G immunoprecipitation kit (Sigma Aldrich, USA). Endogenous IKK complexes were immunoprecipitated in the following reaction mixtures: 100–300 µg of total cell extracts were incubated with 2–4 µg anti-IKK-β or PKAα antibody in 100 µl 1× IP buffer. After incubation for 16 h at 4°C with constant shaking, 50 µl of activated protein G beads were added and the mixture was incubated under rotation for an additional 3 h at 4°C.
(§2) Kinase assay was performed as previously described. Immunoprecipitates from 100 µg of total cell extracts were used for kinase assays. The reaction mixture consisted of kinase buffer (20 mM Tris Cl, pH 7.6, 1 mM EDTA, 1 mM sodium orthovanadate, 20 mM MgCl2, 2 mM DTT), 2 µg GST-IκBα(1–54), 5 µM ATP and 1 µCi [γ ^32P] ATP in a volume of 30 µl. […]

PKA = target: T2, PKA (Homo sapiens, UniProt P17612); experiment: PKA activity assay; assay type: cell-based
T2 construct: PKA was immunoprecipitated from the total cell lysates of unstimulated and TNF-α-stimulated endothelial cells; endogenous in cells; host or cells: HUVEC (treated with MPTAG, SQ 22536, H-89 ± TNF-α), anti-PKAα immunoprecipitate
Text: PKA was immunoprecipitated from the total cell lysates of unstimulated and TNF-α-stimulated endothelial cells in presence and absence of treatment with agents indicated in Figure 7 using anti-PKAα (W-18) antibody. The immunoprecipates were subjected to kinase activity assay using a Bisamide Rhodamine 110 peptide substrate as per the instructions of the Profluor PKA assay kit (Promega, USA).

[1] = system: TNF-α-induced IKK-β activation in HUVECs; experiment: IKK-β activation in treated cells (immunoprecipitation, kinase assay); assay type: cell-based, human
Protocol: as §1, §2

[2] = system: TNF-α-induced E-selectin expression on human endothelial cells; experiment: Cell-ELISA for E-selectin expression; assay type: cell-based; conditions: added 2–4 h prior to TNF-α stimulation; data not shown
Protocol: (§3) The endothelial cells were incubated with or without MPG and its derivatives at various concentrations for 2 h followed by treatment with TNF-α (10 ng/ml) for 16 h for ICAM-1 and VCAM-1 expression and 4 h for E-selectin expression. A Cell-ELISA was used to assess the expression of ICAM-1, VCAM-1 and E-selectin on the surface of endothelial cells as described previously.

[3] = system: NF-κB-dependent reporter gene transcription in HUVECs; experiment: NF-κB reporter gene assay (luciferase); assay type: cell-based, human; conditions: 400 µM, TNF-α 10 ng/ml
Protocol: NF-κB dependent reporter gene transcription was measured as per the instructions of the luciferase assay kit (Promega, USA). Briefly, human endothelial cells ([…]) were plated in 96-well plates. HUVECs were transiently transfected by electroporation with a NF-κB-containing luciferase reporter gene plasmid for 24 h. After transfection, cells were washed and treated with 400 µM MPTAG for 24 h. For the TNF-α stimulation, cells were treated with 10 ng/ml of TNF-α for another 24 h. Supernatants after cell lysis were assayed for luciferase activity. The mean value for cells treated with no MPTAG and no TNF-α was set to 1, and -fold differences were determined by comparing values against this set value. Cells were co-transfected with a control vector expressing β-galactosidase under SV40 promoter to normalize transfection efficiency.

[4] = system: TNF-α-induced ICAM-1 expression on human endothelial cells; experiment: Cell-ELISA for ICAM-1 expression; assay type: cell-based
Protocol: as §3

[5] = system: human endothelial cells (HUVECs); experiment: MTT cytotoxicity assay; assay type: cell-based
Protocol: The cytotoxicity of MPG and its derivatives was analyzed by colorimetric assay using MTT (Thiazolyl blue tetrazolium bromide) reagent as described previously. All experiments were performed at least 3 times in triplicate wells. From this assay, the percentage viability (% viability) of the cells at various concentrations of each compound was determined by normalization to control wells that contained cells incubated in vehicle (0.25% DMSO or cell culture medium) and which were considered 100% viable. The highest concentration at which the viability of the cells was >95% was denoted as the maximum tolerable concentration for that compound.

PI-3K = PI-3K activity assay; assay type: cell-based, human; conditions: pretreatment, HUVECs
Text: The catalytic domain of PI-3K was immunoprecipitated from the stimulated and unstimulated endothelial in presence and absence of various compound treatment using an anti-p85α (N-18) antibody. The immunoprecipated proteins were subjected to kinase activity assay using a PI substrate, diC8 followed by detection of the PI(3)P as per the instructions of the Class III PI-3kinase kit (Echelon, USA).

[6] = system: TNF-α-induced VCAM-1 expression on human endothelial cells; experiment: Cell-ELISA for VCAM-1 expression; assay type: cell-based; conditions: added 2–4 h prior to TNF-α stimulation; data not shown
Protocol: as §3

[7] = system: Akt phosphorylation in HUVECs; experiment: Akt phosphorylation western blot; assay type: cell-based, human
Protocol: (§4) Nuclear and cytoplasmic extracts were fractionated on SDS-PAGE with equal amount of proteins per well and transferred onto PVDF membranes and those membranes were incubated with appropriate primary antibodies and treated with HRP conjugated secondary antibodies followed by detection with DAB-H2O2 system. β-tubulin, α-actin and Lamin B1 were used as loading controls. Antibodies against NF-κBp65, phosphoNF-κBp65, IκBα, phosphoIκBα, IKK-β, Akt, phosphoAkt (Ser473) and phosphoAkt (Thr308) were used.

[8] = system: IκBα in endothelial cells; experiment: IκBα phosphorylation and degradation western blot; assay type: cell-based, human; conditions: 400 µM, TNF-α 30 mins
Protocol: as §4

T1 sequence (O14920 whole entry): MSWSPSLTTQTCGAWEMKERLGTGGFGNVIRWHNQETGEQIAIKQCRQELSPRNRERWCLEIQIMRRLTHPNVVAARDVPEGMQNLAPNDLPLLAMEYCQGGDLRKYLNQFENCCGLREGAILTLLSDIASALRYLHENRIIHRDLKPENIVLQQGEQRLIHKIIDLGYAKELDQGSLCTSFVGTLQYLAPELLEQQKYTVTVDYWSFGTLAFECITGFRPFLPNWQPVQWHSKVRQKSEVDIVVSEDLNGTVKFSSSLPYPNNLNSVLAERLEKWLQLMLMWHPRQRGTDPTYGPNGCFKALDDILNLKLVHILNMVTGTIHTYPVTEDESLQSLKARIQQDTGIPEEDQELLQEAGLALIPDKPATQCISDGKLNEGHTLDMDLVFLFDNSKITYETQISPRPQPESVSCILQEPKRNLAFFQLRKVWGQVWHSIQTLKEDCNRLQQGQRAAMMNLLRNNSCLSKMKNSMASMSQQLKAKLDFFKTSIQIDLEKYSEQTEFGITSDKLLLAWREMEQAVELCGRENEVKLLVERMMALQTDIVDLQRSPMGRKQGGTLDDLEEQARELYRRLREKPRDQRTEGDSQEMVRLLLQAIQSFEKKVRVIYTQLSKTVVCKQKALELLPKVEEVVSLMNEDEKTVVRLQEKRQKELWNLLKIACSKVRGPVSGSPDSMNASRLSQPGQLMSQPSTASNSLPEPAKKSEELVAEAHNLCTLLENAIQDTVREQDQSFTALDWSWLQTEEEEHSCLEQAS

activity of IKK-β by direct interaction (IKK-β): did not affect
PKA activity in unstimulated HUVECs, MPTAG and SQ 22536 added together (PKA; MPTAG + SQ 22536): remained increased
PKA activity in TNF-α-stimulated HUVECs (PKA; MPTAG alone or together with SQ 22536): restored PKA activity
NF-κB-regulated luciferase activity [3]: significantly inhibited
Structure (SMILES): CC(=O)OC[C@H]1O[C@@H](Oc2c(C)occc2=O)[C@H](OC(C)=O)[C@@H](OC(C)=O)[C@@H]1OC(C)=O [MPTAG, 2-methyl-pyran-4-one-3-O-β-D-2′,3′,4′,6′-tetra-O-acetyl glucopyranoside]
TNF-α-induced activation of IKK-β ([1]; pretreatment of cells, dose-dependent): appreciably suppressed
protein levels of IKK-β ([1]; western blot): neither TNF-α nor MPTAG affected
inhibition of E-selectin [2]: maximum inhibition
inhibition of ICAM-1 ([4]; added 2–4 h prior to TNF-α stimulation, data not shown): maximum inhibition
rank among derivatives for inhibition of TNF-α-induced ICAM-1, VCAM-1, E-selectin expression and neutrophil adhesion ([4]; human endothelial cells, Table S2): most active derivative
morphology and viability in HUVECs ([5]; 400 µM): without affecting
cytotoxicity compared to parent compound MPG and the other two derivatives ([5]; MTT, human endothelial cells): less cytotoxic
TNF-α-induced PI-3K activity (PI-3K): no effect
inhibition of VCAM-1 [6]: maximum inhibition
protein levels of Akt ([7]; 400 µM): without affecting
inhibitory effect of MPTAG on TNF-α-induced Akt phosphorylation when H-89 added prior ([7]; H-89 added prior to MPTAG): completely abolished
TNF-α-induced phosphorylation of Akt at Ser473 ([7]; MPTAG 400 µM, TNF-α 30 mins): inhibited
TNF-α-induced phosphorylation of Akt at Thr308 ([7]; MPTAG 400 µM, TNF-α 30 mins): inhibited
TNF-α-induced Akt phosphorylation (Thr308), independently of wortmannin ([7]; with or without wortmannin before MPTAG): dose-dependently inhibited
TNF-α-induced degradation of IκBα [8]: inhibited
TNF-α-induced phosphorylation of IκBα [8]: inhibited
